pIC50: −log10 of the molar value. Counter-ions that a name gives are not always drawn. Like-named read-outs stand apart in the source and are kept apart here.
Experiments:
[1] = system: H1299 (non-small cell lung carcinoma); assay: In vitro antiproliferation assay, H1299 cells (TABLE 1 6 point assay; TABLE 2); assay type: cell-based
Method: (§1) Certain compounds were tested against other cell types for their ability to inhibit proliferation in standard antiproliferation assays.

A549 (lung carcinoma) = assay: In vitro antiproliferation assay, A549 cells (TABLE 1 6 point assay; TABLE 2); assay type: cell-based; conditions: Homo sapiens, A549, 6 point assay; A549 cells; read-out: IC50, A549 cells
Method: as §1

[2] = Homo sapiens, NCI-H1299, 6 point assay, H1299 cells, read-out: IC50, H1299 cells
[3] = H1299 cells, 6 point assay, read-out: H1299, 6pt (IC50, inhibition of proliferation)

Structure (SMILES) | pIC50 [1, 2] | pIC50 (A549 (lung carcinoma)) | pIC50 [1, 3] | pIC50 ([1]; Homo sapiens, NCI-H1299, H1299 cells, 6 point assay, read-out: H1299, 6pt (IC50, inhibition of proliferation))
Cc1cc(Nc2ncc(F)c(NC3C4C=CC(C4)C3C(N)=O)n2)ccc1N1CC(C)OC(C)C1 (racemic) [Compound 284, Racemic-(2-exo,3-exo)-N4-(3-aminocarbonylbicyclo[2.2.1]hept-5-en-2-yl)-N2-[4-(2,6-dimethylmorpholino)-3-methylphenyl]-5-fluoro-2,4-pyrimidinediamine] | ≥ 7.00 | ≥ 7.00 |  | 
Cc1cc(Nc2ncc(F)c(NC3C4C=CC(C4)C3C(N)=O)n2)ccc1N1CC2CC1CC2C (racemic) [Compound 285, Racemic-(2-exo,3-exo)-N4-(3-aminocarbonylbicyclo[2.2.1]hept-5-en-2-yl)-5-fluoro-N2-[3-methyl-4-(5-methyl-(1S,4S)-2,5-diazabicyclo[2.2.1]heptan-2-yl)]phenyl-2,4-pyrimidinediamine] | ≥ 7.00 | ≥ 7.00 |  | 
Cc1cc(Nc2ncc(F)c(N[C@H]3C=CC[C@H]3C(N)=O)n2)ccc1N1CCN(C)CC1 (racemic) [Compound 286, Racemic-cis-N4-(2-aminocarbonylcyclopent-4-en-1-yl)-5-fluoro-N2-[3-methyl-4-(4-methylpiperazin-1-yl)phenyl]-2,4-pyrimidinediamine] | 6.00 to 7.00 | 6.00 to 7.00 |  | 
Cc1cc(Nc2ncc(F)c(N[C@H]3CCC[C@H]3C(N)=O)n2)ccc1N1CCCC1 (racemic) [Compound 287, Racemic-cis-N4-(2-aminocarbonylcyclopent-1-yl)-5-fluoro-N2-[3-methyl-4-(pyrrolidino)phenyl]-2,4-pyrimidinediamine] | 5.00 to 6.00 | 5.00 to 6.00 |  | 
Cc1cc(Nc2ncc(F)c(N[C@H]3[C@@H](C(N)=O)[C@@H]4C=C[C@H]3C4)n2)ccc1N1CCN(C)CC1 [compound 139, (1R,2R,3S,4S)-N4-(3-Aminocarbonylbicyclo[2.2.1]hept-5-en-2-yl)-5-fluoro-N2-[3-methyl-4-(4-methylpiperazin-1-yl)phenyl]-2,4-pyrimidinediamine Trifluoroacetic Acid Salt] |  |  | ≥ 7.00 | 
Cc1cc(Nc2ncc(F)c(N[C@H]3[C@@H](C(N)=O)[C@@H]4C=C[C@H]3C4)n2)ccc1N1CCN(C)CC1 [compound 140, (1R,2R,3S,4S)-N4-(3-Aminocarbonylbicyclo[2.2.1]hept-5-en-2-yl)-5-fluoro-N2-[3-methyl-4-(4-methylpiperazin-1-yl)phenyl]-2,4-pyrimidinediamine Methanesulfonic Acid Salt] |  |  | ≥ 7.00 | 
Cc1cc(Nc2ncc(F)c(N[C@H]3[C@@H](C(N)=O)[C@@H]4C=C[C@H]3C4)n2)ccc1N1CCN(C)CC1 [compound 141, (1R,2R,3S,4S)-N4-(3-Aminocarbonylbicyclo[2.2.1]hept-5-en-2-yl)-5-fluoro-N2-[3-methyl-4-(4-methylpiperazin-1-yl)phenyl]-2,4-pyrimidinediamine Nitric Acid Salt] |  |  |  | ≥ 7.00
Cc1cc(Nc2ncc(F)c(N[C@H]3[C@@H](C(N)=O)[C@@H]4C=C[C@H]3C4)n2)ccc1N1CCN(C)CC1 [compound 142, (1R,2R,3S,4S)-N4-(3-Aminocarbonylbicyclo[2.2.1]hept-5-en-2-yl)-5-fluoro-N2-[3-methyl-4-(4-methylpiperazin-1-yl)phenyl]-2,4-pyrimidinediamine Sulfuric Acid Salt] |  |  | ≥ 7.00 | 
Cc1cc(Nc2ncc(F)c(N[C@H]3[C@@H](C(N)=O)[C@@H]4C=C[C@H]3C4)n2)ccc1N1CCN(C)CC1 [compound 143, (1R,2R,3S,4S)-N4-(3-Aminocarbonylbicyclo[2.2.1]hept-5-en-2-yl)-5-fluoro-N2-[3-methyl-4-(4-methylpiperazin-1-yl)phenyl]-2,4-pyrimidinediamine (S)- Mandelic Acid Salt] |  |  | ≥ 7.00 | 
Cc1cc(Nc2ncc(F)c(N[C@H]3[C@@H](C(N)=O)[C@@H]4C=C[C@H]3C4)n2)ccc1N1CCN(C)CC1 [compound 144, (1R,2R,3S,4S)-N4-(3-Aminocarbonylbicyclo[2.2.1]hept-5-en-2-yl)-5-fluoro-N2-[3-methyl-4-(4-methylpiperazin-1-yl)phenyl]-2,4-pyrimidinediamine p- Toluenesulfonic Acid Salt] |  |  | ≥ 7.00 | 

— US7868013B2, “Cycloalkyl substituted pyrimidinediamine compounds and their uses” (Rigel Pharmaceuticals, Inc., priority 2004, dated 2011)
